Data taken from the supplement of paper PMC8671470.
Where a name gives a salt, the structure may show the parent alone.

Columns and labels:
Details in all cases: 72 h
[1] = test system: BV-173
Procedure, shortened: (§1)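 Fifteen myeloid leukaemia cell lines were seeded in RPMI 1640 at densities titrated to the linear growth range and placed in 384-well plates with acoustically pre-printed compounds at five tenfold doses from 1 to 10,000 nM, in duplicate. After 72 h at 37 °C with 5% CO2, luminescent ATP viability was normalised to vehicle and to a positive control at 10 µM, and curves were fitted with a four-parameter log-logistic model. The IC50 was obtained from these fits.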

[2] = test system: HEL
Procedure, shortened: as §1

[3] = test system: HL-60
Procedure, shortened: as §1

[4] = test system: K-562
Procedure, shortened: as §1

[5] = test system: KCL-22
Procedure, shortened: as §1

[6] = test system: KG-1
Procedure, shortened: as §1

[7] = test system: KU-812
Procedure, shortened: as §1

[8] = test system: LAMA-84
Procedure, shortened: as §1

[9] = test system: ML-2
Procedure, shortened: as §1

[10] = test system: MOLM-13
Procedure, shortened: as §1

[11] = test system: MV4-11
Procedure, shortened: as §1

[12] = test system: Mono-Mac-6
Procedure, shortened: as §1

[13] = test system: NOMO-1
Procedure, shortened: as §1

[14] = test system: SHI-1
Procedure, shortened: as §1

[15] = test system: THP-1
Procedure, shortened: as §1

[16] = test system: BV-173; test: cell viability (% survival relative to DMSO control, bortezomib = 0%); higher = less cytotoxic
Procedure, shortened: (§2)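 After 72 h at 37 °C with 5% CO2, cell viability in 384-well plates was measured by CellTiter-Glo luminescence. The plates held compounds pre-printed at 1, 10, 100, 1000 or 10000 nM in duplicate, and cells from 10 AML and 5 CML lines seeded at densities titrated to linear growth. Percent survival is the duplicate mean, normalised to vehicle as 100% and a 10 µM positive control as 0%.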

[17] = test system: HEL; test: as above
Procedure, shortened: as §2

[18] = test system: HL-60; test: as above
Procedure, shortened: as §2

[19] = test system: K-562; test: as above
Procedure, shortened: as §2

[20] = test system: KCL-22; test: as above
Procedure, shortened: as §2

[21] = test system: KG-1; test: as above
Procedure, shortened: as §2

[22] = test system: KU-812; test: as above
Procedure, shortened: as §2

[23] = test system: LAMA-84; test: as above
Procedure, shortened: as §2

[24] = test system: ML-2; test: as above
Procedure, shortened: as §2

[25] = test system: MOLM-13; test: as above
Procedure, shortened: as §2

[26] = test system: MV4-11; test: as above
Procedure, shortened: as §2

[27] = test system: Mono-Mac-6; test: as above
Procedure, shortened: as §2

[28] = test system: NOMO-1; test: as above
Procedure, shortened: as §2

[29] = test system: SHI-1; test: as above
Procedure, shortened: as §2

[30] = test system: THP-1; test: as above
Procedure, shortened: as §2

CO[C@H]1C[C@@H]2CC[C@@H](C)[C@@](O)(O2)C(=O)C(=O)N2CCCC[C@H]2C(=O)O[C@H]([C@H](C)C[C@@H]2CC[C@@H](OCCO)[C@H](OC)C2)CC(=O)[C@H](C)/C=C(\C)[C@@H](O)[C@@H](OC)C(=O)[C@H](C)C[C@H](C)/C=C/C=C/C=C/1C [Everolimus]
Details	IC50 (cell viability) [µM]
[1]	0.00411
[2]	0.00274
[3]	3.92
[4]	0.00342
[5]	0.00121
[6]	< 0.001
[7]	< 0.001
[8]	0.782
[9]	1.53
[10]	< 0.001
[11]	0.248
[12]	0.00104
[13]	0.0225
[14]	0.00115
[15]	0.00165

cell viability [%]
Details	1 nM	10 nM	100 nM	1000 nM	10000 nM
[16]	79.3	51.9	56	43.6	34.3
[17]	94.9	65.6	67	62.3	58.5
[18]	91.4	75.6	86.3	54.9	43
[19]	71	50.4	48.8	44.5	30.6
[20]	66	44.6	36.2	33.8	24.6
[21]	54.3	45.1	41	37.3	30.5
[22]	58.5	44.9	44.8	39.4	36
[23]	72.2	52.8	62.8	53.7	37.9
[24]	88.7	77.3	66.6	58.6	33.8
[25]	49	38.1	48.3	29.7	34.6
[26]	62.1	64.6	61.8	53.6	22.6
[27]	74.2	46.4	53.1	40.7	44.2
[28]	79.7	63.9	72.7	60.4	56.8
[29]	81.8	60.4	65.8	56.7	55.7
[30]	83.8	67.5	66.9	59.8	58.9

O=C(NCCN1CCC(n2c(O)nc3ccccc32)CC1)c1cc2cc(F)ccc2[nH]1 [FIPI]
Details	IC50 (cell viability) [µM]
[1]	> 10
[2]	> 10
[3]	> 10
[4]	6.19
[5]	> 10
[6]	> 10
[7]	> 10
[8]	> 10
[9]	> 10
[10]	> 10
[11]	> 10
[12]	8.61
[13]	> 10
[14]	> 10
[15]	> 10

cell viability [%]
Details	1 nM	10 nM	100 nM	1000 nM	10000 nM
[16]	96.9	101	99.9	99.3	58.9
[17]	99.1	99.8	101	104	82.5
[18]	105	103	112	97.7	92.2
[19]	99.1	106	108	101	27.3
[20]	100	98	91.1	94.9	67.7
[21]	101	92.4	103	91.2	65.1
[22]	104	92.9	105	106	66.2
[23]	99.3	103	103	98.6	70.5
[24]	96.3	98.6	107	110	75.8
[25]	79.6	104	98.9	95.4	69
[26]	91.3	88.1	100	94.6	53.2
[27]	104	107	106	70.6	64.5
[28]	96.7	95.4	110	102	95.3
[29]	103	104	97.5	97.9	85
[30]	95.8	93.9	101	105	96.3

Cc1cc2c(C(C)C)c(O)c(O)c(C=O)c2c(O)c1-c1c(C)cc2c(C(C)C)c(O)c(O)c(C=O)c2c1O [Gossypol]
Details	IC50 (cell viability) [µM]
[1]	1.6
[2]	3.55
[3]	3.87
[4]	3.67
[5]	2.86
[6]	3.57
[7]	2.41
[8]	3.34
[9]	2.1
[10]	2.98
[11]	3.43
[12]	2.81
[13]	2.88
[14]	6.25
[15]	2.54

cell viability [%]
Details	1 nM	10 nM	100 nM	1000 nM	10000 nM
[16]	95.8	90	98.8	68.3	0.788
[17]	101	104	101	108	0.902
[18]	107	108	111	117	0.854
[19]	94.6	103	91	110	1.45
[20]	105	101	116	92.7	2.21
[21]	95.8	98.9	105	101	5.89
[22]	95	94.2	105	86.1	0.646
[23]	95.2	106	104	103	0.378
[24]	103	103	105	82.6	0.171
[25]	104	97.6	95.2	97.1	-0.453
[26]	97.7	91.2	93.6	104	-0.358
[27]	94.6	85.5	112	91.8	0.586
[28]	97.2	97.5	104	94.1	0.946
[29]	101	106	105	98.2	28
[30]	95.3	90.3	96.6	84.4	0.727

CCN(CCO)CCCC(C)Nc1ccnc2cc(Cl)ccc12 (stereo not given) [Hydroxychloroquine sulfate]
Details	IC50 (cell viability) [µM]
[1]	> 10
[2]	> 10
[3]	> 10
[4]	> 10
[5]	> 10
[6]	> 10
[7]	> 10
[8]	> 10
[9]	> 10
[10]	> 10
[11]	> 10
[12]	> 10
[13]	> 10
[14]	> 10
[15]	> 10

cell viability [%]
Details	1 nM	10 nM	100 nM	1000 nM	10000 nM
[16]	79.7	107	97.6	84.3	94.8
[17]	89.5	102	99	128	98
[18]	125	101	96.5	98.5	84.1
[19]	84.1	97.8	105	101	111
[20]	88.5	113	99.1	119	99.3
[21]	95.1	108	94.6	112	114
[22]	93	103	105	99	97
[23]	87	108	106	94.9	93.6
[24]	92.7	128	92.2	106	105
[25]	81	117	91.8	127	108
[26]	78.8	112	93.2	102	106
[27]	92.7	104	91.8	88.2	86.7
[28]	94.4	106	98.8	94.9	98.2
[29]	95.5	106	101	127	104
[30]	91.5	106	102	92.2	110

O=C([O-])CC(O)(C(=O)[O-])C(O)C(=O)[O-].[K+].[K+].[K+] (stereo not given) [Hydroxycitrate]
Details	IC50 (cell viability) [µM]
[1]	> 10
[2]	> 10
[3]	> 10
[4]	> 10
[5]	> 10
[6]	> 10
[7]	> 10
[8]	> 10
[9]	> 10
[10]	> 10
[11]	> 10
[12]	> 10
[13]	> 10
[14]	> 10
[15]	> 10

cell viability [%]
Details	1 nM	10 nM	100 nM	1000 nM	10000 nM
[16]	80.2	95.7	89.1	104	105
[17]	79.6	98.2	112	95.1	99.6
[18]	55.8	96.6	92.9	75.4	103
[19]	81.6	98.8	102	110	108
[20]	86.5	109	104	84.7	88
[21]	80	94.5	93.6	102	91.5
[22]	94.4	98.4	105	97.3	92.4
[23]	93	95.9	115	93.8	96.4
[24]	90.3	95.8	78.1	104	97
[25]	68.9	104	99.4	89.5	92.5
[26]	81.4	107	111	106	90.2
[27]	87.8	86.8	98	90.6	99.5
[28]	83.1	101	99.1	95.8	102
[29]	80.8	112	92	100	88.6
[30]	83.8	93.4	97.5	97.7	105
